{"source": "patent US20170143712A1", "about": "“Methods of Treating Cancers, Immune and Autoimmune Diseases, and Inflammatory Diseases Based on BTK Occupancy and BTK Resynthesis Rate” (Acerta Pharma B.V., priority 2014, published 2017)", "key": {"BTK": {"biological_target": "T1, BTK (Mus musculus, UniProt P35991)", "T1 construct": "from tissue; host or cells: mouse spleen (splenocytes), animals dosed in vivo; A19 used DBA/1 mice with collagen-induced arthritis", "T1 sequence (P35991 whole entry)": "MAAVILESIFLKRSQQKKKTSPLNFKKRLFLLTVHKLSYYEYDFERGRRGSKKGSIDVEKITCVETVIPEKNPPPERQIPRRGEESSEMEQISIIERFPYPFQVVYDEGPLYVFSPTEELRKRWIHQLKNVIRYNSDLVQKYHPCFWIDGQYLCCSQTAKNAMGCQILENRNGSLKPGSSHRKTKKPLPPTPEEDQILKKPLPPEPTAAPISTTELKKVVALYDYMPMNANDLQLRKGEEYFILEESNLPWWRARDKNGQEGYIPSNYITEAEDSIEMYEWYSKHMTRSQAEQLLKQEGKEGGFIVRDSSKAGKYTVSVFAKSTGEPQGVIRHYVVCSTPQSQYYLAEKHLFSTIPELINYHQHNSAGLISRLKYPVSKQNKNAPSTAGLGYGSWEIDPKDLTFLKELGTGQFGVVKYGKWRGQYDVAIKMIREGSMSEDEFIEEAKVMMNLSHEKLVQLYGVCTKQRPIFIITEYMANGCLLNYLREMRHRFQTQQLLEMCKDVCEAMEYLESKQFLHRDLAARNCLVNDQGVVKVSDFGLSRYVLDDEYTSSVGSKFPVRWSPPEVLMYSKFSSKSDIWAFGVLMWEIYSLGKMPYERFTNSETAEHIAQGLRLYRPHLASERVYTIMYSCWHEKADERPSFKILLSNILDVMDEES", "assay": "BTK target occupancy in mouse splenocytes after a single oral dose", "type": "in vivo", "details": "single oral 25 mg/kg, 3 hours"}, "S6 phosphorylation": {"tested_on": "S6 phosphorylation", "assay": "Basal and anti-IgM induced S6 phosphorylation in splenocytes after oral dosing of mice", "type": "in vivo, mouse", "details": "single oral 25 mg/kg; rank order Formula (II)>ibrutinib>Formula (XVII)", "description": "(§1) B cell stimulation through the B cell receptor (BCR) with antibodies (e.g., anti-IgM) results in the activation of BTK and subsequent cellular changes, including the upregulation of various cell surface receptors. Measuring the inhibition of BCR induced protein phosphorylation downstream of Btk, and the inhibition of surface receptor upregulation provides a way to assess the Btk inhibitor activity. In the first study, the BTK target occupancy in splenocytes was measured over time, providing evidence for BTK resynthesis in the tissue compartment of interest.\n(§2) Mice were sacrificed at 3, 6, 12, 18, and 24 hours after treatment with the BTK inhibitors (FIG. 27A, FIG. 27B, and FIG. 27C). Spleens were harvested and splenocyte preparations were made for flow cytometry analysis of B cell functions. Fresh or cryopreserved splenocytes were cultured with a-IgM to stimulate BCR, and the up-regulation of CD69, an early functional marker of B cell activation, was analyzed by flow cytometry.\nA downstream marker of BTK activity, S6 phosphorylation, was also monitored in this study. […] In a second study, the effects of another inhibitor of BTK that covalently inactivates the kinase, Formula (XXI), were compared with Formula (II) to evaluate the return of BCR function and B cell activation, as illustrated in FIG. 29A and FIG. 29B."}, "B cell receptor (BCR) [1]": {"tested_on": "B cell receptor (BCR)", "assay": "Ex vivo anti-IgM induced CD86 and CD69 expression on splenocyte B cells after oral dosing of mice", "type": "in vivo", "details": "Mus musculus, single oral 25 mg/kg, 3-24 hours, read-out: CD86 % inhibition over the entire time course"}, "B cell receptor (BCR) [2]": {"tested_on": "B cell receptor (BCR)", "assay": "Ex vivo anti-IgM induced CD86 and CD69 expression on splenocyte B cells after oral dosing of mice", "type": "in vivo, mouse", "details": "single oral 25 mg/kg; for inhibition at 25 mg/kg: Mus musculus, B-cell, 3-24 hours, read-out: CD69 % inhibition over the entire time course; for inhibition of ex vivo anti-IgM induced responses in B cells: 3 hours post-dose", "description": "as §1, §2"}, "psoriasis": {"tested_on": "psoriasis", "details": "tyrosine kinase inhibitors used for malignancies; cited from earlier work"}, "[3]": {"tested_on": "established type II collagen-induced arthritis (CIA) in DBA/1 mice", "assay": "14-day mouse established type II collagen-induced arthritis (CIA), PO QD (Example 10)", "type": "in vivo", "details": "for AUC (All Paws) - Corrected for Initial Score / Change in Body Weight (g) / Histopathology Summed Score Knees / Histopathology Summed Score Paws / Histopathology Summed Score Six-Joints / Paw Score AUC (All Paws): mean(SE); for disease-induced body weight loss (percent change from baseline) vs vehicle controls / arthritis scores measured daily vs vehicle controls: p<0.05 on the days printed; for arthritis scores measured daily vs vehicle controls: all paws", "description": "Prior to dosing, the candidate anti-inflammatory agents were reconstituted either by vortexing or stirring. The candidate anti-inflammatory agents were administered to the DBA/1 mice daily (QD) by the oral (PO) route.\nImmunization with heterologous type II collagen (CII) induces arthritis in mice of the DBA/1 strain, which is genetically susceptible to this disease. To develop an experimental model of autoimmunity more adequate for the study of human rheumatoid arthritis (RA), male DBA/1 mice were injected intradermally (ID) with bovine type II collagen to induce arthritis as reported by Trentham et al (Trentham D E, Townes A S, Kang A H Autoimmunity to type II collagen: an experimental model of arthritis. J. Exper. Med. 1977, 146:857-868) and Bendele A (Bendele A, Animal models of rheumatoid arthritis. J. Musculoskelet. Neuronal Interact. 2001, 1(4):377-85). Male DBA/1 mice (n=114) that were 6-7 weeks old and weighed approximately 18-27 grams (mean 22 g) at enrollment (arthritis day 1) were obtained from Taconic Farms, Inc. The male DBA/1 mice were at least 6 weeks old at time of first immunization and were housed 3-5/cage in shoe-box polycarbonate cages with wire tops, wood chip bedding, and suspended food and water bottles. These animals were identified by a distinct number of ink marks at the base of the tail delineating animal number. After enrollment, all cages were labeled with protocol number, group number, and animal numbers.\nThe male DBA/1 (n=10/group for arthritis) were anaesthetized with Isoflurane, shaved at the base of the tail, and injected intradermally with 150 μL of Freund's Complete Adjuvant (Difco, Detroit, Mich.) containing bovine type II collagen (BBP, batch #7) (1 mg/ml) at the base of the tail on day 0 and again on day 21. […] Randomization was done after swelling was obviously established in at least one paw (score of 1) and attempts were made to ensure approximately equal mean scores of 0.5-1 across groups at the time of enrollment. […] The male DBA/1 mice were terminated on arthritis day 14 (3 hours post-dose).\nEfficacy evaluation of the administered anti-inflammatory agents was based on animal body weights, clinical arthritis scores, arthritis scores expressed as area under the curve (AUC), and histopathology on fore paws, hind paws, and knees. Histopathology results were expressed as 4 paws, knees only, or 6 joints (knees included). Day 13 was used as the endpoint for analysis of body weight change since the male DBA/1 mice were fasted overnight prior to necropsy on day 14."}, "[4]": {"tested_on": "BCR signaling through BTK", "assay": "Anti-IgM induced CD86 and CD69 on splenocyte B cells of CIA mice", "type": "in vivo, mouse", "details": "splenocytes 3 hr after last dosing on day 14", "description": "(§3) FIG. 45 illustrates changes in a functional measure of BCR signalling through the CD86 marker. Mouse splenocytes were isolated from spleens from mice that were part of the mouse CIA study semi-therapeutic protocol, 3 hr after the last dosing on day 14 of the treatment and cryopreserved. After thawing, inhibition of anti-IgM-induced PD markers CD86 and CD69 on mouse splenocyte B cells were measured. Error bars represent the standard deviation for the 3 sets of splenocytes analyzed.\nas §3, with “FIG. 46” for “FIG. 45”, “the CD69” for “the CD86”\nInhibition of the BCR signaling through BTK was evaluated by ex vivo stimulation of splenocytes using IgM and evaluation of CD86 and CD69 as functional responses of BCR stimulation."}}, "note": "Where two headings read alike, the source gives them in different places."}
{"smiles": "C=CC(=O)Nc1cccc(Nc2nc(Nc3ccc(OCCOC)cc3)ncc2F)c1", "note": "[Formula (XVII), N-(3-((5-fluoro-2-((4-(2-methoxyethoxy)phenyl)amino)pyrimidin-4-yl)amino)phenyl)acrylamide]", "values": [{"measurement": "BTK target occupancy in splenocytes", "setting": "BTK", "value": "incomplete BTK target occupancy"}, {"measurement": "basal state and anti-IgM induced S6 phosphorylation", "setting": "S6 phosphorylation", "value": "inhibited both basal state and anti-IgM induced S6 phosphorylation"}, {"measurement": "inhibition at 25 mg/kg", "setting": "B cell receptor (BCR) [1]", "value": 28.1, "unit": "%"}, {"measurement": "inhibition at 25 mg/kg", "setting": "B cell receptor (BCR) [2]", "value": 44.8, "unit": "%"}, {"measurement": "inhibition of ex vivo anti-IgM induced responses in B cells", "setting": "B cell receptor (BCR) [2]", "value": "incomplete inhibition"}]}
{"smiles": "Cc1ccc(NC(=O)c2ccc(CN3CCN(C)CC3)cc2)cc1Nc1nccc(-c2cccnc2)n1", "note": "[imatinib]", "values": [{"measurement": "effect on psoriasis / skin in patients", "setting": "psoriasis", "value": "may cause worsening of psoriasis"}]}
{"smiles": "Cc1ccc(C(=O)Nc2ccc(CN3CCN(C)CC3)c(C(F)(F)F)c2)cc1C#Cc1cnc2cccnn12", "note": "[Ponatinib]", "values": [{"measurement": "effect on psoriasis / skin in patients", "setting": "psoriasis", "value": "induces an almost psoriasis-like disease"}]}
{"smiles": "Cc1nc(Nc2ncc(C(=O)Nc3c(C)cccc3Cl)s2)cc(N2CCN(CCO)CC2)n1", "note": "[dasatinib]", "values": [{"measurement": "effect on psoriasis / skin in patients", "setting": "psoriasis", "value": "has not been reported to improve psoriasis"}]}
{"smiles": "C=CC(=O)N1CCC[C@@H](n2nc(-c3ccc(Oc4ccccc4)cc3)c3c(N)ncnc32)C1", "note": "[ibrutinib, (R)-1-(3-(4-amino-3-(4-phenoxyphenyl)-1H-pyrazolo[3,4-d]pyrimidin-1-yl)piperidin-1-yl)prop-2-en-1-one]", "values": [{"measurement": "basal state and anti-IgM induced S6 phosphorylation", "setting": "S6 phosphorylation", "value": "inhibited both basal state and anti-IgM induced S6 phosphorylation"}, {"measurement": "AUC (All Paws) - Corrected for Initial Score", "setting": "[3]; 1 mg/kg PO QD", "value": "20.81(4.47)"}, {"measurement": "Change in Body Weight (g)", "setting": "[3]; 1 mg/kg PO QD", "value": "−1.28(0.69) g"}, {"measurement": "Histopathology Summed Score Knees", "setting": "[3]; 1 mg/kg PO QD", "value": "‡10.15(1.16)"}, {"measurement": "Histopathology Summed Score Paws", "setting": "[3]; 1 mg/kg PO QD", "value": "10.30(1.84)"}, {"measurement": "Histopathology Summed Score Six-Joints", "setting": "[3]; 1 mg/kg PO QD", "value": "10.25(1.36)"}, {"measurement": "Paw Score AUC (All Paws)", "setting": "[3]; 1 mg/kg PO QD", "value": "28.29(5.18)"}, {"measurement": "disease-induced body weight loss (percent change from baseline) vs vehicle controls", "setting": "[3]; 1 mg/kg PO QD", "value": "significantly inhibited toward normal"}, {"measurement": "daily arthritis scores vs vehicle controls", "setting": "[3]; 1 mg/kg PO QD, prophylactic paws", "value": "significantly reduced toward normal"}, {"measurement": "six-joint histopathology, reduction of summed scores vs vehicle controls", "setting": "[3]; 5 mg/kg PO QD", "value": 79, "unit": "%"}, {"measurement": "total body weight loss from enrollment to study termination", "setting": "[3]; 5 mg/kg PO QD", "value": "significantly inhibited"}, {"measurement": "arthritis scores measured daily vs vehicle controls", "setting": "[3]; 5 mg/kg PO QD", "value": "significantly reduced toward normal"}, {"measurement": "AUC (All Paws) - Corrected for Initial Score", "setting": "[3]; 5 mg/kg PO QD", "value": "*3.68(2.18)"}, {"measurement": "Change in Body Weight (g)", "setting": "[3]; 5 mg/kg PO QD", "value": "*0.45(0.65) g"}, {"measurement": "Histopathology Summed Score Paws", "setting": "[3]; 5 mg/kg PO QD", "value": "*3.63(1.07)"}, {"measurement": "Histopathology Summed Score Six-Joints", "setting": "[3]; 5 mg/kg PO QD", "value": "*3.11(0.95)"}, {"measurement": "disease-induced body weight loss (percent change from baseline) vs vehicle controls", "setting": "[3]; 5 mg/kg PO QD", "value": "significantly inhibited toward normal"}, {"measurement": "daily arthritis scores vs vehicle controls", "setting": "[3]; 5 mg/kg PO QD, prophylactic paws", "value": "significantly reduced toward normal"}, {"measurement": "six-joint histopathology, reduction of summed scores vs vehicle controls", "setting": "[3]; 25 mg/kg PO QD", "value": 94, "unit": "%"}, {"measurement": "total body weight loss from enrollment to study termination", "setting": "[3]; 25 mg/kg PO QD", "value": "significantly inhibited"}, {"measurement": "arthritis scores measured daily vs vehicle controls", "setting": "[3]; 25 mg/kg PO QD", "value": "significantly reduced toward normal"}, {"measurement": "AUC (All Paws) - Corrected for Initial Score", "setting": "[3]; 25 mg/kg PO QD", "value": "*−4.09(1.58)"}, {"measurement": "Change in Body Weight (g)", "setting": "[3]; 25 mg/kg PO QD", "value": "*0.83(0.62) g"}, {"measurement": "Histopathology Summed Score Knees", "setting": "[3]; 25 mg/kg PO QD", "value": "*0.65(0.29)"}, {"measurement": "Histopathology Summed Score Paws", "setting": "[3]; 25 mg/kg PO QD", "value": "*0.91(0.48)"}, {"measurement": "Histopathology Summed Score Six-Joints", "setting": "[3]; 25 mg/kg PO QD", "value": "*0.83(0.30)"}, {"measurement": "Paw Score AUC (All Paws)", "setting": "[3]; 25 mg/kg PO QD", "value": "*3.06(1.08)"}, {"measurement": "disease-induced body weight loss (percent change from baseline) vs vehicle controls", "setting": "[3]; 25 mg/kg PO QD", "value": "significantly inhibited toward normal"}, {"measurement": "daily arthritis scores vs vehicle controls", "setting": "[3]; 25 mg/kg PO QD, prophylactic paws", "value": "significantly reduced toward normal"}, {"measurement": "daily arthritis scores vs vehicle controls", "setting": "[3]; 25 mg/kg PO QD, therapeutic paws", "value": "significantly reduced toward normal"}, {"measurement": "spleen weights compared to vehicle controls", "setting": "[3]; all dose groups PO QD", "value": "not significantly affected"}, {"measurement": "inhibition at 25 mg/kg", "setting": "B cell receptor (BCR) [1]", "value": 62.9, "unit": "%"}, {"measurement": "BCR-mediated signaling (anti-IgM induced CD86 and CD69)", "setting": "[4]", "value": "dose-responsive decreases in BCR-mediated signaling"}, {"measurement": "inhibition at 25 mg/kg", "setting": "B cell receptor (BCR) [2]", "value": 83.4, "unit": "%"}, {"measurement": "inhibition of ex vivo anti-IgM induced responses in B cells", "setting": "B cell receptor (BCR) [2]", "value": "near complete inhibition"}, {"measurement": "inhibition of CD86 and CD69 expression", "setting": "B cell receptor (BCR) [2]; persisting for 24 hours", "value": "partial inhibition"}]}
